How the values were obtained:
[1] = test system: MCF7; assay: Cell Death Detection ELISA PLUS apoptosis assay; format: cell-based, Human
Procedure: (§1) To determine the induction of apoptosis, the Cell Death Detection ELISA^PLUS Assay (Roche Cat. No. 11774425001), which determines the degree of cytoplasmic mono- and oligonucleosomes, was employed as described by the manufacturer. […] Cells were then concentrated by centrifugation at 200 g for 10 min at room temperature and the supernatant was discarded. Cells were lysed, and cytoplasmic fractions containing fragmented DNA were transferred to streptavidin-coated microtiter plates preincubated with a biotinylated monoclonal anti-histone antibody. The amount of fragmented nucleosomes bound to anti-histone antibody was evaluated by peroxidase-conjugated monoclonal antibody using ABTS (2,2-azino-di[3-ethylbenzthiazoline sulfonate-6-diammonium salt]) as a substrate, and read in a microplate reader at 405 nm. Non-treated cells were employed as controls.

[2] = test system: T47D; assay: Cell Death Detection ELISA PLUS apoptosis assay; format: cell-based, Human
Procedure: as §1

[3] = test system: MDA-MBA-468; assay: Cell Death Detection ELISA PLUS apoptosis assay; format: cell-based, Human; conditions: MDA-MBA-468, 48 hours post-AF treatment, 100 nM AF per legend FIG. 2A
Procedure: as §1

[4] = test system: caspases 3/7 in MDA-MB-231; assay: Caspase Glo-3/7 Assay; format: cell-based, Human; conditions: MDA-MB-231, relative to vehicle treated cells, FIG. 2C
Procedure: (§2) The Caspase Glo-3/7 Assay (Promega) was used to measure the combined activities of caspases-3 and -7. In brief, cells were seeded in a white-walled 96-well plate (Nunc) at a density of 2,000 cells/well and allowed to attach overnight. AF was added the following day in final concentrations of 0.1 nM to 100 μM in replicas of 8. Caspase activity was measured 5 days later by adding the Caspase Glo-3/7 reagent to the plate and incubating for another 2 hours. Caspase cleavage results in the release a substrate for luciferase that was measured using a LumiCount luminometer (Packard). Caspase activity levels were normalized to the amount of viable cells, determined by the CellTiter-Glo Luminescent Cell Viability Assay (Promega) performed in parallel to the caspase assay. Data analysis to obtain the mean and standard error as well as graphing employed Excel® (Microsoft Corporation).

[5] = test system: caspases 3/7 in MCF7; assay: Caspase Glo-3/7 Assay; format: cell-based, Human; conditions: MCF7, relative to vehicle treated cells, FIG. 2C
Procedure: as §2

[6] = test system: caspases 3/7 in MDA-MBA-468; assay: Caspase Glo-3/7 Assay; format: cell-based, Human; conditions: MDA-MBA-468, relative to vehicle treated cells, FIG. 2C
Procedure: as §2

[7] = test system: caspases 3/7 in T47D; assay: Caspase Glo-3/7 Assay; format: cell-based, Human; conditions: relative to vehicle treated cells, FIG. 2C
Procedure: as §2

[8] = test system: gamma-H2AX in MDA-MBA-231; assay: Western blot analysis for phosphorylated H2AX; format: cell-based, Human; conditions: MDA-MBA-231, AF for 24 hrs, FIG. 2B
Procedure: (§3) Western blot analysis for phosphorylated H2AX (γ-H2AX) was performed by first growing cells to between 50% and 80% confluence and treating them with concentrations of AF for 24 hrs, according to the concentration at which 50% of the proliferation was inhibited (IC50). Cells were collected and centrifuged at 1,000×g for 15 minutes at 4° C. Histones were released by the method described by Meng et al. (Cancer Res, 65(12):5337-43 (2005)). Briefly, pellets were washed twice in PBS, homogenized in 0.2 mol/L H2SO4, and centrifuged at 13,000×g. The supernatant was removed and 0.25 volume of 100% (w/v) trichloroacetic acid was added to precipitate the histones. Samples were then centrifuged again at 13,000×g for 15 mins at 4° C. The supernatant was removed and the remaining pellet was suspended in 100% ethanol overnight. A final centrifugation step was performed at 13,000×g for 15 mins at 4° C. The solute was then dissolved in nuclease-free water. Protein concentration was determined using the Bio-Rad Protein Assay (Bio-Rad, CA). 30 μg of protein was resolved on 4-20% Tris-glycine precast gels (Invitrogen). Proteins were transferred onto a PVDF membrane (Immobilon-P, Millipore) and then blocked with 5% milk in TBST (0.1% Tween-20 in 1× Tris-buffered saline—pH 7.4) for 1 hr. […]

[9] = test system: gamma-H2AX in MDA-MBA-468; assay: Western blot analysis for phosphorylated H2AX; format: cell-based, Human; conditions: MDA-MBA-468, AF for 24 hrs, FIG. 2B
Procedure: as §3

[10] = test system: K562; conditions: K562 leukemia cell line, NIH dose response data; cited from earlier work
[11] = test system: TK10; conditions: TK10 renal cell line, NIH dose response data; cited from earlier work
[12] = test system: BT-549; conditions: BT-549 breast cancer cell line, as determined by the NIH study; cited from earlier work

## Cc1c(F)c(N)c2c(=O)cc(-c3ccc(N)c(F)c3)oc2c1F [AF, 5-amino-2-(4-amino-3-fluorophenyl)-6,8-difluoro-7-methylchromen-4-one]
[1]; 1 μM AF, MCF7, FIG. 2A
  increase (cytoplasmic nucleosomes; printed as increase in inhibition of cell proliferation): > 4.5 fold
[1]; MCF7, 48 hours post-AF treatment, 100 nM AF per legend FIG. 2A
  induction of apoptosis: prominent induction of apoptosis
[2]; 1 μM AF, FIG. 2A
  increase (cytoplasmic nucleosomes; printed as increase in inhibition of cell proliferation): > 4.5 fold
[2]; 48 hours post-AF treatment, 100 nM AF per legend FIG. 2A
  induction of apoptosis: prominent induction of apoptosis
[3]
  induction of apoptosis: prominent induction of apoptosis
[4]
  Caspases 3 and 7 activity: do not
[5]
  induction of caspases 3/7 (combined activity): not activated
[6]
  induction of caspases 3/7 (combined activity): marked induction
[7]
  induction of caspases 3/7 (combined activity): marked induction
[8]
  presence of gamma-H2AX (double stranded DNA breaks): not observed at all
[9]
  presence of gamma-H2AX (double stranded DNA breaks): observed
[10]
  AF sensitivity: AF sensitive
[11]
  AF sensitivity: AF sensitive
[12]
  AF sensitivity: AF in-sensitive

Reference: patent US20130177904A1, “ARNT ISOFORM 3 AS A PREDICTOR OF AMINOFLAVONE RESPONSIVENESS IN CANCER CELLS” (UNIVERSITY OF MARYLAND, BALTIMORE, priority 2010, published 2013)
